From patent US5180720A, “2- and 3-alkoxy or hydroxy-8-substituted-dibenz[b,f]-[1,4]oxazepine-10(11H)-carboxylic acid, substituted hydrazides and methods for treating pain” (G. D. Searle & Co., priority 1991, dated 1993)
Entries after “also recorded” stand apart in the source; their conditions may differ.

Legend:
[1] = tested on: prostaglandins of the E series; conditions: cited from earlier work
[2] = tested on: mice; assay: PBQ Writhing Assay (analgesic activity); assay type: in vivo, mouse (Charles River male albino mice); conditions: for rank order of potency in the Writhing Assay: PBQ writhing; for PBQ writhing assay, I.G. (activity): 30 mg/kg i.g.; for PBQ writhing assay, S.C. (activity): 30 mg/kg s.c.
Source text: The Writhing Assay is one of the most widely-used experimental procedures for measuring the analgesic activity of different narcotic and nonnarcotic analgesic agents, and involves the continuous, chemically-induced pain of visceral origin to an animal, such as a mouse or rat. [Gyires et al., Arch. int. Pharmacodyn, 267, 131-140 (1984); C. Vander Wende et al., Fed. Proc., 15, 494 (1956); Koster et al., Fed. Proc., 18, 412 (1959); and Witken et al., J. Pharmacol. exp. Ther., 133, 400-408 (1961).] Chemicals which may be used to induce this pain include phenylbenzoquinone (PBQ) and acetic acid. As a result of the chemical irritation to the animal, a characteristic stretching and writhing of the animal (dorsiflexion of the animal's back, extension of its hindlimbs and the strong contraction of its abdominal musculature) will generally occur. […] Drugs which reduce the number of writhes of the animal appear to restore the normal nociceptive threshold of the animal.
Charles River male albino mice, weighing 20 to 30 grams were used in this assay.
Thirty minutes after subcutaneous or intragastric administration to ten mice of 30 mg per kilogram of body weight of a compound of the present invention ("test compound"), […] per 10 g of body weight of a 0.025% w/v solution of PBQ was injected intraperitoneally into each mouse. Ten mice which were given saline in place of a test compound of the invention were used as a control group.
Five minutes later, each mouse was individually placed into a glass beaker for observation, and the number of writhes occurring during the following ten-minute period was counted.
A test compound was considered to have produced analgesia in a mouse if, in accordance with the conditions set forth above, and under the test criteria employed for this assay, after the administration of 30 mg per kilogram of body weight of a compound of the present invention to the mouse, the number of writhes elicited by a mouse injected with PBQ was equal to, or less than, one-half the median number of writhes recorded for the saline-treated control group of mice that day, as described by Taber in "Predictive Value of Analgesic Assays in Mice and Rats," Advances in Biochemical Psychopharmacology, 8, 191 (1974).
The standard initial screening dose of a test compound employed in this assay was 30 mg per kilogram of body weight for both routes of administration. If this initial screening dose of the test compound produced analgesia in seven out of ten mice, then the effect of additional doses of the test compound on the writhing response was evaluated, and then the ED50 dose was generally calculated. (The slopes of the dose-response curves for all test compounds analyzed were compared as described by Tallarida and Murray, Manual of Pharmacologic Calculations, Page 11 (Springer Verlag, N.Y., 1981)).

[3] = molecular target: T1, prostaglandin E2-induced contractions of segments of guinea pig ileum (Cavia porcellus, UniProt A0A286XHJ6); assay: Prostaglandin (PGE) Antagonism Assay, guinea pig ileum; assay type: cell-based; parameters: key to PGE antagonism in guinea pig ileum (activity): Active: A concentration of the test compound was determined to be "active" if it produced a dose ratio significantly greater than that obtained in a series of blank treatments
T1 construct: Segments of ileum about 2 cm long were then cut and mounted in a 10-mL tissue bath; from tissue; host or cells: ileum segments of male albino guinea pigs
T1 sequence (A0A286XHJ6 1-405): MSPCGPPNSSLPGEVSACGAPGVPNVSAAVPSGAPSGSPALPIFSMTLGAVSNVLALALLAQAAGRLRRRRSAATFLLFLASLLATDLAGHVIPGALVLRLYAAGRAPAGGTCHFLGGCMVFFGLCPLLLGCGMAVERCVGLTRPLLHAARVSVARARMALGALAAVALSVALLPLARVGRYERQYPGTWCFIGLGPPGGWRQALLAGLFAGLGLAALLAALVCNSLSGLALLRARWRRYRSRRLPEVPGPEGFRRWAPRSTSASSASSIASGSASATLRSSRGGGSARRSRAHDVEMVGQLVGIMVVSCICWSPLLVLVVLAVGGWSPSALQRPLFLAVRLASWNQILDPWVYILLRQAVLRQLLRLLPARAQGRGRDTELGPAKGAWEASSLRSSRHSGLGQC
Protocol: In order to determine the effectiveness of compounds of the invention ("test compounds") as prostaglandin E2 antagonists, a prostaglandin antagonism assay was conducted, as described below, to determine the ability of these compounds to inhibit prostaglandin E2 -induced contractions of segments of guinea pig ileum.
Male albino guinea pigs weighing 200 to 500 grams were sacrificed by cervical dislocation.
The ileums were then quickly removed from the guinea pigs and placed in a modified Tyrode solution, a solution which is known to those of skill in the art, containing one-half of the usual amount of magnesium ions.
Segments of ileum about 2 cm long were then cut and mounted in a 10-mL tissue bath containing the modified Tyrode solution. The solution was maintained at 37° C. and aerated with a gaseous mixture of 95% oxygen and 5% carbon dioxide.
Submaximal contractions of the ileum segments were then generated by injecting prostaglandin E2 into the bath, and detected isotonically. Data for a control prostaglandin E2 dose response curve plotting concentration of prostaglandin E2 versus number of contractions generated was then obtained by experimentally adjusting the dose of the prostaglandin E2 being injected into the tissue bath, in a manner known by those of skill in the art.
Solutions or suspensions containing an initial amount of a test compound in modified Tyrode solution ("test solutions/ suspensions") were then separately substituted for the tissue bath. […]
If the initial concentration of a test compound was determined to be "active," then varying concentrations of the test compound were then assayed.
The pA2 value (a statistical constant which is a common measure of expressing the potency of a particular drug as a competitive antagonist) was then calculated for the test compound by schild plot calculations, as described by H.O. Schild, "pA, A New Scale for the Measurement of Drug Antagonism," Br. J. Pharmacol, 2, 189 (1947), according to the following mathematical formula: […]
to quantitate the effectiveness of the test compound as a prostaglandin E2 antagonist.

[4] = tested on: stimulant actions of prostaglandins on isolated smooth muscle preparations; conditions: cited from earlier work
[5] = tested on: micturition reflex in rats; conditions: urethane-anesthetized rats; cited from earlier work

Structure (SMILES): O=C(CCCCCl)NNC(=O)N1Cc2ccccc2Oc2ccc(Cl)cc21 [8-chlorodibenz[b,f][1,4]-oxazepine-10(11H)-carboxylic acid, 2-(5-chloro-1-oxopentyl)hydrazide]
- antagonism of prostaglandins of the E series [1]: competitive antagonists of prostaglandins of the E series

Structure (SMILES): CC(=O)NNC(=O)N1Cc2ccccc2Oc2ccc(Cl)cc21 [8-chlorodibenz[b,f][1,4]-oxazepine-10(11H-carboxylic acid, 2-acetylhydrazide]
- antagonism of prostaglandins of the E series [1]: competitive antagonists of prostaglandins of the E series

Structure (SMILES): CCS(=O)(=O)CCC(=O)NNC(=O)N1Cc2cc(OC)ccc2Oc2ccc(Cl)cc21 [Example 3, 8-chloro-2-methoxydibenz[b,f][1,4]oxazepine-10(11H)-carboxylic acid, 2-[3-(ethylsulfonyl)-1-oxopropyl]hydrazide]
- rank order of potency in the Writhing Assay [2]: Example 4>Example 8>Example 7>Example 3

Structure (SMILES): CCS(=O)(=O)CCC(=O)NNC(=O)N1Cc2cc(O)ccc2Oc2ccc(Cl)cc21 [Example 4, 8-chloro-2-hydroxydibenz[b,f][1,4]oxazepine-10(11H)-carboxylic acid, 2-[3-(ethylsulfonyl)-1-oxopropyl]hydrazide]
- PBQ writhing assay, I.G. (activity) [2]: Active
- PBQ writhing assay, S.C. (activity) [2]: Active
- ED50 ([2]; Mus musculus, po, 0.5 h, intragastric, read-out: PBQ writhing assay ED50, I.G.): 12.6 mg/kg
- rank order of potency in the Writhing Assay [2]: Example 4>Example 8>Example 7>Example 3; also recorded: the most potent compound of the invention tested in this assay
- activity as prostaglandin E2 antagonist, in words ([3]; guinea pig ileum): exhibits activity as a prostaglandin E2 antagonist
- PGE antagonism in guinea pig ileum (activity) ([3]; guinea pig ileum segments, 37° C.): Active
- Kb ([3]; guinea pig ileum segments, 37° C., Schild plot, read-out: PGE antagonism in guinea pig ileum (pA2) (converted)): 3.98 µM

Structure (SMILES): CCS(=O)(=O)CCC(=O)NNC(=O)N1Cc2ccc(OC)cc2Oc2ccc(Cl)cc21 [Example 7, 8-chloro-3-methoxydibenz[b,f][1,4]oxazepine-10(11H)-carboxylic acid, 2-[3-(ethylsulfonyl)-1-oxopropyl]hydrazide]
- PBQ writhing assay, I.G. (activity) [2]: Active
- rank order of potency in the Writhing Assay [2]: Example 4>Example 8>Example 7>Example 3

Structure (SMILES): CCS(=O)(=O)CCC(=O)NNC(=O)N1Cc2ccc(O)cc2Oc2ccc(Cl)cc21 [Example 8]
- PBQ writhing assay, I.G. (activity) [2]: Active
- PBQ writhing assay, S.C. (activity) [2]: Active
- rank order of potency in the Writhing Assay [2]: Example 4>Example 8>Example 7>Example 3

Structure (SMILES): O=C(Cc1ccccc1)NNC(=O)N1Cc2ccccc2Oc2ccc(Cl)cc21 [SC-18637]
- inhibition of stimulant actions of prostaglandins [4]: inhibit the stimulant actions of prostaglandins on isolated smooth muscle preparations

Structure (SMILES): CC(=O)NNC(=O)N1Cc2ccccc2Oc2ccc(Cl)cc21 [SC-19220]
- inhibition of stimulant actions of prostaglandins [4]: inhibit the stimulant actions of prostaglandins on isolated smooth muscle preparations
- bladder capacity [5]: increased the bladder capacity
- voiding efficiency of micturition [5]: reduced the voiding efficiency of micturition
